Laboratory results reported in article PMC2766550 (Peptides, 2009).
Square brackets hold non-standard residues; d marks the D form. Ends that are not written are not given here. Peptide text beside a SMILES is read from it. * marks the point of attachment. dPhe(F5) = N[C@H](Cc1c(F)c(F)c(F)c(F)c1F)C(=O)O; pGlu = O=C1CC[C@@H](C(=O)O)N1; Nle = CCCC[C@H](N)C(=O)O; βAla = NCCC(=O)O; NHPr = CCCN*

Assays:
hGRP-receptor [1] = target: T1, hGRP-receptor (Homo sapiens, UniProt P30550); assay: Whole cell radioligand binding, HuTu-80 cells
T1 sequence (P30550 whole entry): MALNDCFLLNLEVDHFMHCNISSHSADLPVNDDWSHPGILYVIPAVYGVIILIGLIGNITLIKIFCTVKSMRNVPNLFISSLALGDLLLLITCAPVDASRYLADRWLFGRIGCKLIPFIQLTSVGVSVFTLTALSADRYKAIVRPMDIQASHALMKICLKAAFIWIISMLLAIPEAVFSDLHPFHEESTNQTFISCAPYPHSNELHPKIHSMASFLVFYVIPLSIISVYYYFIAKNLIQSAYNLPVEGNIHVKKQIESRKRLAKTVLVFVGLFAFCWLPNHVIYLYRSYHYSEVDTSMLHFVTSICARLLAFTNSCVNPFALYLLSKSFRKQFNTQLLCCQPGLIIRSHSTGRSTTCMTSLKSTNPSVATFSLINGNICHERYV

hNMB-receptor [2] = target: T2, hNMB-receptor (Homo sapiens, UniProt P28336); assay: Whole cell radioligand binding, hNMB-receptor transfected Balb 3T3 cells; settings: IC50 hNMB-R Balb-3T3, hNMB-receptor transfected Balb 3T3 cells; 125I-[D-Tyr0]NMB, 1 h, 22°C; mean ± S.E.
T2 sequence (P28336 whole entry): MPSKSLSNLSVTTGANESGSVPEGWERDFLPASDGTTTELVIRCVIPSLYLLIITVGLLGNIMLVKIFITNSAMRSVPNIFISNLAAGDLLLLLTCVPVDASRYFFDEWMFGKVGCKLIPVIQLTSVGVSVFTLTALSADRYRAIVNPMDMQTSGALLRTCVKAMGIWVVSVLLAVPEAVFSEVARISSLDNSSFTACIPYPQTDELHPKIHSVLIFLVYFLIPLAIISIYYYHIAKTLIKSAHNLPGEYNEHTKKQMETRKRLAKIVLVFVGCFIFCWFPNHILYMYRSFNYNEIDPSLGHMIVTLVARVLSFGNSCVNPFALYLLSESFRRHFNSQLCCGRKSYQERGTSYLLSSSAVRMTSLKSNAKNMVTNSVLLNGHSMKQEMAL

hNMB-receptor [3] = target: T2, hNMB-receptor; assay: Whole cell radioligand binding, hNMB-receptor transfected NCI-H1299 cells
hBRS-3 receptor = target: T3, hBRS-3 receptor (Homo sapiens, UniProt P32247); assay: Whole cell radioligand binding, hBRS-3 transfected Balb 3T3 cells
T3 sequence (P32247 1-399): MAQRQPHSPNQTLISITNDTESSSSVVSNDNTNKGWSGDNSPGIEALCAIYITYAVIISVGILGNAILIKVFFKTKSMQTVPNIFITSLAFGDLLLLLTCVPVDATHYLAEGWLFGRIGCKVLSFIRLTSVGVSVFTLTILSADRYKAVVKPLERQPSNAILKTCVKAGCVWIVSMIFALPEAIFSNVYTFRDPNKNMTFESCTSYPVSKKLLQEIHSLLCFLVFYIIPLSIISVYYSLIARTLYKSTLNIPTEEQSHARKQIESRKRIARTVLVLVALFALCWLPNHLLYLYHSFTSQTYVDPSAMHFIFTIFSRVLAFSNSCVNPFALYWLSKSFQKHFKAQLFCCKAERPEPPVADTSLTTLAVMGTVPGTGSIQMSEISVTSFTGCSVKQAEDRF

hGRP-receptor [4] = target: T1, hGRP-receptor; assay: [3H]inositol phosphate generation, hGRP-receptor transfected Balb 3T3 cells; format: cell-based
hGRP-receptor [5] = target: T1, hGRP-receptor; assay: [3H]inositol phosphate generation, HuTu-80 cells; format: cell-based
hNMB-receptor [6] = target: T2, hNMB-receptor; assay: cell-based; settings: for [3H]IP NCI-H1299 (hNMB-R) EC50: stimulation of [3H]IP generation
hGRP-receptor [7] = target: T1, hGRP-receptor; assay: Whole cell radioligand binding, hGRP-receptor transfected Balb 3T3 cells; settings: b34 values for receptors expressed in Balb 3T3 cells

| Compound | IC50 (hGRP-receptor [1]) [nM] | IC50 (hNMB-receptor [2]) [nM] | IC50 (hNMB-receptor [3]) [nM] | IC50 (hBRS-3 receptor) [nM] | IC50 (hGRP-receptor [4]) [nM] | IC50 (hGRP-receptor [5]) [nM] | IC50 (hNMB-receptor [6]) [nM] | [3H]IP NCI-H1299 (hNMB-R) EC50 (hNMB-receptor [6]) | selectivity for hGRP-receptor over hNMB-receptor (binding affinities) (hGRP-receptor [7]) | fold lower affinity for hBRS3 than for the ligand's own receptor (hBRS-3 receptor) | EC50 (hNMB-receptor [6]) [nM] |
| --- | --- | --- | --- | --- | --- | --- | --- | --- | --- | --- | --- |
| CC(C)C[C@H](NC(=O)[C@H](CC(C)C)NC(=O)[C@@H](Cc1c[nH]c2ccccc12)NC(=O)[C@H](Cc1ccccc1)NC(=O)[C@@H](Cc1c[nH]c2ccccc12)NC(=O)[C@H](CCC(N)=O)NC(=O)[C@H](CCC(N)=O)NC(=O)[C@@H]1CCCN1C(=O)[C@H](CCCCN)NC(=O)[C@@H]1CCCN1C(=O)[C@H](N)CCCN=C(N)N)C(N)=O [Peptide 3, [D-Arg^1, D-Trp^7,9, Leu^11]SP] (H-[dR]PKPQQ[dW]F[dW]LL-NH2) | 1780 ± 50 | 4480 ± 860 | 1590 ± 30 | > 10000 | 1580 ± 81 | 8310 ± 154 | 2340 ± 80 | – | – | – | – |
| CSCC[C@H](NC(=O)[C@@H](Cc1c[nH]c2ccccc12)NC(=O)[C@@H](Cc1c[nH]c2ccccc12)NC(=O)[C@H](Cc1ccccc1)NC(=O)[C@@H](Cc1c[nH]c2ccccc12)NC(=O)[C@H](CCC(N)=O)NC(=O)[C@H](CCC(N)=O)NC(=O)[C@H]1CCCN1)C(N)=O [Peptide 4, [D-Pro^4, D-Trp^7,9,10]SP-(4-11)] (H-[dP]QQ[dW]F[dW][dW]M-NH2) | > 10000 | > 10000 | > 10000 | 2300 ± 400 | > 3000 | > 3000 | 7080 ± 344 | No act | – | – | – |
| CCOC(=O)[C@H](CC(C)C)NC(=O)[C@H](Cc1c[nH]cn1)NC(=O)CNC(=O)[C@@H](NC(=O)[C@H](C)NC(=O)[C@H](Cc1c[nH]c2ccccc12)NC(=O)[C@H](CCC(N)=O)NC(=O)[C@H](N)Cc1ccccc1)C(C)C [Peptide 20, [D-Phe^6]Bn-(6-13)Ethyl ester] | 0.14 ± 0.03 | > 10000 | > 10000 | 5300 ± 1400 | 2 ± 0.3 | 1.4 ± 0.8 | – | – | > 10,000 fold | – | – |
| COC(=O)[C@H]1CCCN1C(=O)[C@H](Cc1c[nH]cn1)NC(=O)[C@@H](C)NC(=O)[C@@H](NC(=O)[C@H](C)NC(=O)[C@H](Cc1c[nH]c2ccccc12)NC(=O)[C@H](Cc1c[nH]cn1)NC(=O)[C@H](N)Cc1c(F)c(F)c(F)c(F)c1F)C(C)C [Peptide 19, [D-F-5-Phe^6, His^7, D-Ala^11, D-Pro^13]Bn(6-13)ME] (H-[dPhe(F5)]HWAV[dA]H[dP]-OMe) | – | > 10000 | – | > 10000 | – | – | – | – | – | – | – |
| CSCC[C@H](NC(=O)[C@H](CC(C)C)NC(=O)[C@H](Cc1c[nH]cn1)NC(=O)CNC(=O)[C@@H](NC(=O)[C@H](C)NC(=O)[C@H](Cc1c[nH]c2ccccc12)NC(=O)[C@H](Cc1c[nH]cn1)NC(=O)[C@H](CC(N)=O)NC(=O)CNC(=O)[C@H](CCCNC(=N)N)NC(=O)[C@@H]1CCCN1C(=O)[C@H](Cc1ccc(O)cc1)NC(=O)[C@H](CCSC)NC(=O)[C@H](CCCCN)NC(=O)[C@@H](NC(=O)[C@H](CC(C)C)NC(=O)[C@@H](NC(=O)[C@@H](NC(=O)CNC(=O)CNC(=O)CNC(=O)[C@H](C)NC(=O)[C@@H]1CCCN1C(=O)[C@H](CC(C)C)NC(=O)[C@@H]1CCCN1C(=O)[C@@H](N)C(C)C)[C@@H](C)O)C(C)C)[C@@H](C)O)C(C)C)C(N)=O [GRP, gastrin-releasing peptide, reference compound] | – | – | – | – | – | – | – | – | – | > 10,000 fold | – |
| CCNC(=O)[C@H](CC(C)C)NC(=O)[C@H](Cc1c[nH]cn1)NC(=O)CNC(=O)[C@@H](NC(=O)[C@H](C)NC(=O)[C@H](Cc1c[nH]c2ccccc12)NC(=O)[C@H](CCC(N)=O)NC(=O)[C@H](N)Cc1ccccc1)C(C)C [Peptide 10, [D-Phe^6]Bn(6-13)Ethylamide] | 2.22 ± 0.13 | > 10000 | > 10000 | > 10000 | 52.5 ± 4.3 | 43.6 ± 3.6 | – | – | – | – | – |
| CCCCCCCNC(=O)[C@H](CC(C)C)NC(=O)[C@H](Cc1c[nH]cn1)NC(=O)CNC(=O)[C@@H](NC(=O)[C@H](C)NC(=O)[C@H](Cc1c[nH]c2ccccc12)NC(=O)[C@H](CCC(N)=O)NC(=O)[C@H](N)Cc1ccccc1)C(C)C [Peptide 16, [D-Phe^6]Bn(6-13)Heptylamide] | – | 6100 ± 630 | – | > 10000 | – | – | – | – | – | – | – |
| CC(C)C[C@H](NC(=O)[C@H](CC(C)C)NC(=O)[C@@H](Cc1ccccc1)NC(=O)CNC(=O)[C@@H](NC(=O)[C@H](C)NC(=O)[C@H](Cc1c[nH]c2ccccc12)NC(=O)[C@H](CCC(N)=O)NC(=O)[C@H](CC(N)=O)NC(=O)CNC(=O)[C@H](CC(C)C)NC(=O)[C@H](CCCNC(=N)N)NC(=O)[C@H](CCC(N)=O)NC(=O)[C@@H]1CCC(=O)N1)C(C)C)C(N)=O [Peptide 1, [D-Phe^12, Leu^14]Bn] ([pGlu]QRLGNQWAVG[dF]LL-NH2) | – | > 10000 | – | > 10000 | – | – | – | – | – | – | – |
| CCCCNC(=O)[C@H](CC(C)C)NC(=O)[C@H](Cc1c[nH]cn1)NC(=O)CNC(=O)[C@@H](NC(=O)[C@H](C)NC(=O)[C@H](Cc1c[nH]c2ccccc12)NC(=O)[C@H](CCC(N)=O)NC(=O)[C@H](N)Cc1ccccc1)C(C)C [Peptide 14, [D-Phe^6]Bn(6-13)Butylamide (BA)] | 1.02 ± 0.09 | 3110 ± 160 | 1780 ± 30 | 692 ± 27 | 21.3 ± 1.6 | 15.5 ± 2 | – | – | – | – | – |
| CSCC[C@H](NC(=O)[C@H](CC(C)C)NC(=O)[C@@H](Cc1ccccc1)NC(=O)CNC(=O)[C@@H](NC(=O)[C@H](C)NC(=O)[C@H](Cc1c[nH]c2ccccc12)NC(=O)[C@H](CCC(N)=O)NC(=O)[C@H](CC(N)=O)NC(=O)CNC(=O)[C@H](Cc1ccc(O)cc1)NC(=O)[C@H](CCCNC(=N)N)NC(=O)[C@H](CCC(N)=O)NC(=O)[C@@H]1CCC(=O)N1)C(C)C)C(N)=O [Peptide 2, [Tyr^4, D-Phe^12]Bn] | 912 ± 76 | 3090 ± 320 | 1860 ± 60 | > 10000 | > 10000 | 8130 ± 226 | – | – | – | – | 103 ± 5 |
| CCCNC(=O)[C@H](CC(C)C)NC(=O)[C@H](Cc1c[nH]cn1)NC(=O)CNC(=O)[C@@H](NC(=O)[C@H](C)NC(=O)[C@H](Cc1c[nH]c2ccccc12)NC(=O)[C@H](CCC(N)=O)NC(=O)[C@H](N)Cc1ccc(O)cc1)C(C)C [Peptide 12, [D-Tyr^6]Bn-(6-13)Propylamide (PA)] | 1.41 ± 0.06 | > 10000 | > 10000 | 1900 ± 300 | 275 ± 13 | 40.7 ± 1.4 | – | – | – | – | – |
| CCCCCCNC(=O)[C@H](CC(C)C)NC(=O)[C@H](Cc1cnc[nH]1)NC(=O)CNC(=O)[C@@H](NC(=O)[C@H](C)NC(=O)[C@H](Cc1c[nH]c2ccccc12)NC(=O)[C@H](CCC(N)=O)NC(=O)[C@H](N)Cc1ccccc1)C(C)C [Peptide 15, [D-Phe^6]Bn-(6-13)Hexylamide] | 2.19 ± 0.04 | 8140 ± 400 | > 10000 | 3250 ± 60 | 380 ± 31 | 204 ± 14 | – | – | – | – | – |
| NQWAVGHL-NH2 [Peptide 9, Bn(6-13)NH2] | – | > 10000 | – | > 10000 | – | – | – | – | – | – | – |
| CC(C)C[C@H](NC(=O)[C@H](CC(C)C)NC(=O)[C@@H](Cc1c[nH]c2ccccc12)NC(=O)[C@H](Cc1ccccc1)NC(=O)[C@@H](Cc1c[nH]c2ccccc12)NC(=O)[C@H](CCC(N)=O)NC(=O)[C@H](CCC(N)=O)NC(=O)[C@@H]1CCCN1C(=O)[C@H](CCCCN)NC(=O)[C@@H]1CCCN1C(=O)[C@H](N)CCCNC(=N)N)C(N)=O [Peptide 3, [D-Arg^1, D-Trp^7,9, Leu^11]SP] (H-[dR]PKPQQ[dW]F[dW]LL-NH2) | – | – | – | – | – | – | – | No act | – | – | – |
| CCCNC(=O)[C@H](Cc1ccccc1)NC(=O)[C@H](Cc1c[nH]cn1)NC(=O)CNC(=O)[C@@H](NC(=O)[C@H](C)NC(=O)[C@H](Cc1c[nH]c2ccccc12)NC(=O)[C@H](CCC(N)=O)NC(=O)[C@H](N)Cc1ccccc1)[C@@H](C)O [Peptide 13, [D-Phe^6,Thr^10, Phe^13]Bn(6-13)PA] (H-[dF]QWATGHF-NHPr) | – | 1320 ± 30 | – | > 10000 | – | – | – | – | – | – | – |
| CCCC[C@H](NC(=O)[C@H](Cc1ccccc1)NC(=O)[C@H](Cc1cnc[nH]1)NC(=O)CCNC(=O)[C@@H](NC(=O)[C@H](C)NC(=O)[C@H](Cc1c[nH]c2ccccc12)NC(=O)[C@H](CCC(N)=O)NC(=O)[C@H](N)Cc1ccc(O)cc1)C(C)C)C(N)=O [Peptide 35, [D-Tyr^6, β-Ala^11,Phe^13, Nle^14]Bn-(6-14), reference compound] (H-[dY]QWAV[βAla]HF[Nle]-NH2) | – | 0.31 ± 0.01 | – | 0.55 ± 0.03 | – | – | – | – | – | – | – |
| CC(C)C[C@H](NC(=O)[C@H](Cc1cnc[nH]1)NC(=O)CNC(=O)[C@@H](NC(=O)[C@H](C)NC(=O)[C@H](Cc1c[nH]c2ccccc12)NC(=O)[C@H](CCC(N)=O)NC(=O)[C@H](N)Cc1ccccc1)C(C)C)C(N)=O [Peptide 8, [D-Phe^6]Bn(6-13)NH2] | 4.93 ± 0.39 | > 10000 | > 10000 | > 10000 | 416 ± 8 | 398 ± 11 | > 10000 | – | – | – | – |
